Key:
[1] = target: T1, L-arabinose isomerase (Lactiplantibacillus pentosus, UniProt Q6UA74); assay: L-arabinose isomerase activity assay (cysteine-carbazole ketose determination), enzyme from Lactobacillus pentosus ATCC 8041; assay type: biochemical; conditions: for % Activity with activator (None = 100): metal ion activator, bioconversion of D-galactose; for Enzyme Activity: 10 minutes, 0.1 M L-arabinose or 0.2 M D-galactose as substrate; for total activity, Present Invention Data / activity (10 min.), Present Invention Data: substrate as labelled, propagation 24 hours, 37° C., pH 6.5, BYF 100 medium; for activity (10 min.), Present Invention Data: per g cell mass
T1 construct: whole cells, sonicated cell-free extract or immobilized, from L-arabinose-induced culture
T1 sequence (Q6UA74 1-474): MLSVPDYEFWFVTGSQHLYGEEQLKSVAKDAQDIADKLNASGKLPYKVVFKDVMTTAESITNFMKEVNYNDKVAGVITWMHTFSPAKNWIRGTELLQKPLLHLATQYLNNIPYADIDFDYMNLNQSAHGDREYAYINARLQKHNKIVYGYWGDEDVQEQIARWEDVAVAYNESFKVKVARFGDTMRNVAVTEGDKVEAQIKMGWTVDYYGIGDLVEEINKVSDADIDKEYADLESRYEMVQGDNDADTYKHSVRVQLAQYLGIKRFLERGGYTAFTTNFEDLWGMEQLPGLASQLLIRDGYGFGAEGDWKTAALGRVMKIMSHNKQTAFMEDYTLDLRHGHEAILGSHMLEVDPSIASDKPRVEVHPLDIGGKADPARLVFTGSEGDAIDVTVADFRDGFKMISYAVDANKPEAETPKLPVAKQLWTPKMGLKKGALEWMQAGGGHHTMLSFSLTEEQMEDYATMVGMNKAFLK
Experimental: The activity of L-arabinose isomerase can be assayed based on the appearance of keto-pentose (L-ribulose) or keto-hexose (D-tagatose) after incubation in the presence of the substrate aldo-pentose (L-arabinose) or aldo-hexose (D-galactose), respectively. The keto-pentose or keto-hexose can be measured colorimetrically utilizing cysteine-carbazole sulfuric acid as a reagent. The cysteine-carbazole method is described in, Zacharias Dische, "Color Reaction of Ketoses with Carbazole and Sulfuric Acid", Methods in Carbohydrate Chemistry (1962) page 481 [132]. Samples should be analyzed in duplicate, utilizing one sample as a blank to correct for substances which may interfere with the calorimetric ketose determination.
For purposes of this specification, one unit of L-arabinose isomerase activity is defined as that amount of enzyme which is required to produce one micromole of L-ribulose or D-tagatose from the respective substrates, L-arabinose or D-galactose, following ten minutes of incubation under assay conditions.
Following 24 hours of propagation, the cell mass was harvested and washed with a phosphate or maleate buffer at pH 6.5. The L-arabinose isomerase was extracted from the harvested cells by sonication.
To 1.0 ml of the bioconversion reaction medium (using a dilution factor if needed) the following is added:
0.2 ml of cystein hydrochloride (1.5% in water);
6.0 ml 75% sulfuric acid (450 ml conc. sulfuric acid+190 ml water); and
0.2 ml of 0.12% alcohol solution of carbazole (0.12 gram carbazole in 100 ml 95% ethanol).
The test tubes are incubated for 10 minutes at 57° C. and optical density (O.D.) is read at 540. The D-galactose substrate is used as a blank for reference.
A series of bioconversions were conducted with varied parameters to determine optimum conditions for Lactobacillus pentosus L-arabinose isomerase.

[2] = target: T2, L-arabinose isomerase (Bacillus amyloliquefaciens, UniProt A0A9P1JJ98); assay: L-arabinose isomerase bioconversion of D-galactose to D-tagatose, enzyme from Bacillus amyloliquefaciens IFO 3022; assay type: biochemical; conditions: for D-TAGATOSE / O.D. (X - B): 1.67 M D-galactose, 60° C., 120 min.
T2 construct: crude enzyme
T2 sequence (A0A9P1JJ98 1-499): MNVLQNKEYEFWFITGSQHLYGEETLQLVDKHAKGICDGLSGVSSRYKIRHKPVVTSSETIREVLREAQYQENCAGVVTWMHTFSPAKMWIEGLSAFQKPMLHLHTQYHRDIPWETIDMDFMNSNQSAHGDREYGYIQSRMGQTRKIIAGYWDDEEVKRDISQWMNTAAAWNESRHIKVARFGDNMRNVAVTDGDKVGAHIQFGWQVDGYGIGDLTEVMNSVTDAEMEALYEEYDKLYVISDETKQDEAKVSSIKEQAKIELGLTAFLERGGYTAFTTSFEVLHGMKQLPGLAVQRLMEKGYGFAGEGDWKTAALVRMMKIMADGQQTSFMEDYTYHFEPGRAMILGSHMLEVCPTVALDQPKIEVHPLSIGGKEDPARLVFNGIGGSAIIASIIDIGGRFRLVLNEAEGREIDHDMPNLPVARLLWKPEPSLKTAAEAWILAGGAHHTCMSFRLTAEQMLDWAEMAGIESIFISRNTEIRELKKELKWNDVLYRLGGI
Experimental: Bacillus amyloliquefaciens (previously known as Bacillus subtilis, IFO 3022, was evaluated as a source of L-arabinose isomerase. Cells of the culture were propagated on the same medium as used in Example 1 in the presence of L-arabinose as a carbon source. Optimum pH, temperature, metal ion and metal ion concentration were evaluated as summarized below.
In the following tests, sample B was comprised of 0.8 ml. D-galactose and 0.2 ml. water and sample X was comprised of 0.8 ml. D-galactose an 0.2 ml. enzyme. The dilution factor for the optical density (O.D.) reading was 200×. (The cystein carbazole method was used for the D-tagatose assay.)

[3] = system: L-arabinose isomerase; assay: L-arabinose isomerase bioconversion of D-galactose to D-tagatose, enzyme from Arthrobacter sp. ATCC 21920; assay type: biochemical; conditions: for D-TAGATOSE / O.D. (X - B): 1.67 M D-galactose, 60° C., 120 min.
Experimental: The cultures were screened based on cell propagation on medium #1 of Example 3 in the presence of L-arabinose as a carbon source.
Cells of Arthrobacter sp. ATCC 21920 were propagated on medium #1 of Example 3 in the presence of L-arabinose as a carbon source. Optimum pH, temperature, metal ion and metal ion concentration were evaluated on the cell extract containing L-arabinose isomerase as summarized below.
In the following tests, sample B was comprised of 0.8 ml. D-galactose and 0.2 ml. water and sample X was comprised of 0.8 ml. D-galactose and 0.2 ml. enzyme. The dilution factor for the optical density (O.D.) reading was 200×.

[4] = system: L-arabinose isomerase; conditions: cited from earlier work; for affinity of the isomerase for the sugar: Yamanaka and Wood, 1966
[5] = system: L-arabinose-L-ribulose-isomerase; conditions: Simpson, 1958; cited from earlier work
[6] = target: T3, L-arabinose isomerase (Mycolicibacterium smegmatis, UniProt Q9RHG2); conditions: Izumori et al., 1978; cited from earlier work
T3 construct: L-arabinose isomerases from Mycobacterium smegmatis induced by L-arabinose and D-galactose; host or cells: Mycobacterium smegmatis
T3 sequence (Q9RHG2 whole entry): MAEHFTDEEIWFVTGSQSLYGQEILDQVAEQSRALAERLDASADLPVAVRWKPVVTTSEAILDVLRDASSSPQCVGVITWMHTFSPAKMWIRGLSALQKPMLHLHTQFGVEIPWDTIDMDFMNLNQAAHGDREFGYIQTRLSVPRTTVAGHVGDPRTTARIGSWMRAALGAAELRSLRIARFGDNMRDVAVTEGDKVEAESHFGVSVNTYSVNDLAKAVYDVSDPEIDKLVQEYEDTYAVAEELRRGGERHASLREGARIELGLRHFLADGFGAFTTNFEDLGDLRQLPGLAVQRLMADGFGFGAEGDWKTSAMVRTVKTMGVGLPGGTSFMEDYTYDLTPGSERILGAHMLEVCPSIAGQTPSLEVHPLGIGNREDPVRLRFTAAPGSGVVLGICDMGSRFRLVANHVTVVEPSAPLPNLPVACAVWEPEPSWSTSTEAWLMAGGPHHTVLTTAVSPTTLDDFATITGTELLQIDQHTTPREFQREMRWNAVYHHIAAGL

[7] = at about 25° C.; cited from earlier work
[8] = 0.005 M metallic ion, O.D. 540, dilution 200×

[Ca] [Calcium]
% Activity with activator (None = 100) [1]: 143% | D-TAGATOSE ([2]; 0.005 M metallic ion): 0.009 M | O.D. (X - B) [2, 8]: 0.1802 | D-TAGATOSE ([3]; 0.005 M metallic ion): 0.033 M | O.D. (X - B) [3, 8]: 0.7107

[Co+2] [Cobalt]
% Activity with activator (None = 100) [1]: 200% | D-TAGATOSE ([2]; 0.005 M metallic ion): 0.005 M | O.D. (X - B) [2, 8]: 0.0970 | D-TAGATOSE ([3]; 0.005 M metallic ion): 0.050 M | O.D. (X - B) [3, 8]: 1.0764

C[C@@H](O)[C@H](O)[C@H](O)[C@@H](O)C=O [D-fucose]
affinity of the isomerase for the sugar [4]: low affinity

O=C[C@H](O)[C@@H](O)[C@@H](O)[C@H](O)CO [D-galactose]
Enzyme Activity ([1]; 35° C.): 0.07 u/ml. | Enzyme Activity ([1]; 60° C.): 0.90 u/ml. | Km (D-galactose), as % ([1]; crude enzyme, L. pentosus): 20% | total activity, Present Invention Data [1]: 395 u/L. | activity (10 min.), Present Invention Data [1]: 45 u/g. | Km (D-galactose), as % ([2]; crude enzyme, B. amylo.): 12% | L-arabinose isomerase activity ([3]; D-galactose as a substrate, 10 min. incubation): 21 U/g/10 min. | Km (D-galactose), as % ([3]; crude enzyme, Arthrobacter): 15% | activity of L-arabinose isomerase on the sugar ([4]; Nakamatu, Biochim. Biophys. Acta 178): slight | affinity of the isomerase for the sugar [4]: low affinity | substrate quality for L-arabinose-L-ribulose-isomerase [5]: slow | substrate of the isomerase [6]: not a substrate of the isomerase | maximum solubility in water [7]: about 70 % by weight

[Fe+3] [Ferric]
D-TAGATOSE ([2]; 0.005 M metallic ion): 0.018 M | O.D. (X - B) [2, 8]: 0.3817 | D-TAGATOSE ([3]; 0.005 M metallic ion): 0.037 M | O.D. (X - B) [3, 8]: 0.8003

[Fe+2] [Ferrous]
% Activity with activator (None = 100) [1]: 200% | % Activity over activator range ([1]; range 1 MM-10 MM): 123-250% | D-TAGATOSE ([2]; 0.005 M metallic ion): 0.020 M | O.D. (X - B) [2, 8]: 0.4438 | D-TAGATOSE ([3]; 0.005 M metallic ion): 0.037 M | O.D. (X - B) [3, 8]: 0.8030

O=C[C@H](O)[C@@H](O)[C@@H](O)CO [L-arabinose, reference compound]
Enzyme Activity ([1]; 35° C.): 24.6 u/ml. | Enzyme Activity ([1]; 60° C.): 68.1 u/ml. | total activity, Present Invention Data [1]: 4,220 u/L. | activity (10 min.), Present Invention Data [1]: 425 u/g. | affinity of the isomerase for the sugar [4]: high affinity | total activity, Published Data ([4]; substrate as labelled, propagation 24 hours, 37° C.): 525 u/L. | activity (10 min.), Published Data ([4]; substrate as labelled, propagation 24 hours, 37° C., per g cell mass): 350 u/g.

[Mg] [Magnesium]
% Activity with activator (None = 100) [1]: 141% | D-TAGATOSE ([2]; 0.005 M metallic ion): 0.005 M | O.D. (X - B) [2, 8]: 0.1048 | D-TAGATOSE ([3]; 0.005 M metallic ion): 0.036 M | O.D. (X - B) [3, 8]: 0.7890

[Mn+2] [Manganese]
% Activity with activator (None = 100) [1]: 177% | D-TAGATOSE ([2]; 0.005 M metallic ion): 0.035 M | O.D. (X - B) [2, 8]: 0.7610 | D-TAGATOSE ([2]; manganese ion 0.001 M): 0.036 M | O.D. (X - B) ([2]; manganese ion 0.001 M): 0.7723 | D-TAGATOSE ([2]; manganese ion 0.003 M): 0.030 M | O.D. (X - B) ([2]; manganese ion 0.003 M): 0.6441 | D-TAGATOSE ([2]; manganese ion 0.005 M): 0.031 M | O.D. (X - B) ([2]; manganese ion 0.005 M): 0.6815 | D-TAGATOSE ([2]; manganese ion 0.007 M): 0.031 M | O.D. (X - B) ([2]; manganese ion 0.007 M): 0.6678 | D-TAGATOSE ([2]; manganese ion 0.009 M): 0.030 M | O.D. (X - B) ([2]; manganese ion 0.009 M): 0.6591 | D-TAGATOSE ([2]; manganese ion 0.011 M): 0.032 M | O.D. (X - B) ([2]; manganese ion 0.011 M): 0.7007 | D-TAGATOSE ([2]; manganese ion 0.013 M): 0.032 M | O.D. (X - B) ([2]; manganese ion 0.013 M): 0.6851 | D-TAGATOSE ([3]; 0.005 M metallic ion): 0.044 M | O.D. (X - B) [3, 8]: 0.9574 | D-TAGATOSE ([3]; manganese ion 0.001 M): 0.041 M | O.D. (X - B) ([3]; manganese ion 0.001 M): 0.8919 | D-TAGATOSE ([3]; manganese ion 0.003 M): 0.035 M | O.D. (X - B) ([3]; manganese ion 0.003 M): 0.7600 | D-TAGATOSE ([3]; manganese ion 0.005 M): 0.040 M | O.D. (X - B) ([3]; manganese ion 0.005 M): 0.8848 | D-TAGATOSE ([3]; manganese ion 0.007 M): 0.042 M | O.D. (X - B) ([3]; manganese ion 0.007 M): 0.9057 | D-TAGATOSE ([3]; manganese ion 0.009 M): 0.051 M | O.D. (X - B) ([3]; manganese ion 0.009 M): 1.1175 | D-TAGATOSE ([3]; manganese ion 0.011 M): 0.043 M | O.D. (X - B) ([3]; manganese ion 0.011 M): 0.9333 | D-TAGATOSE ([3]; manganese ion 0.013 M): 0.049 M | O.D. (X - B) ([3]; manganese ion 0.013 M): 1.0753

[Zn+2] [Zinc]
% Activity with activator (None = 100) [1]: 110% | D-TAGATOSE ([2]; 0.005 M metallic ion): 0.007 M | O.D. (X - B) [2, 8]: 0.1596 | D-TAGATOSE ([3]; 0.005 M metallic ion): 0.012 M | O.D. (X - B) [3, 8]: 0.2544

— patent US6057135A, “Process for manufacturing D-tagatose” (Kraft Foods, Inc., priority 1992, dated 2000)
